Assay results reported in paper PMC8537386, “The Specificity and Broad Multitarget Properties of Ligands for the Free Fatty Acid Receptors FFA3/GPR41 and FFA2/GPR43 and the Related Hydroxycarboxylic Acid Receptor HCA2/GPR109A” (Pharmaceuticals, 2021).
Where two headings read alike, the source gives them in different places.

What was measured:
[1] = test system: MCP-1 mRNA; assay: LPS-induced MCP-1 gene expression in THP-1 macrophages (qRT-PCR); format: cell-based, human; details: compound 50 µg/mL; 4 h LPS; LPS-treated cells = 100%
Description: (§1) The human THP-1 monocyte cell line was obtained from ATCC (American Type Culture Collection). […] The THP-1 monocytes were stimulated to differentiate into macrophages with phorbol 12-myristate 13-acetate (PMA) (50 ng/mL) for 24 h. The medium was exchanged for PMA-free medium for 48 h before the cells were used for experiments.
(§2) The total RNA was isolated from THP-1 cells using TRIzol reagent, according to the manufacturer’s protocol. First-strand cDNA was synthesized from 2 µg of RNA using oligo(dT) primers with RevertAid H Minus kit (Thermo Fisher Scientific, USA). The qRT-PCR procedure was performed using ABsolute Blue QPCR SYBR Green Master Mix reagent (Thermo Fisher Scientific, USA) with a ViiA7 real-time PCR detection system (Applied Biosystems, USA). The primer pairs that were employed for HCA2/GPR109A were forward 5′-[…]-3′ and reverse 5′-[…]-3′; for FFA2/GPR43 were forward 5′-[…]-3′ and reverse 5′-[…]-3′; for FFA3/GPR41 were forward 5′-[…]-3′ and reverse 5′-[…]-3′; for IL-6 were forward 5′-[…]-3′ and reverse 5′-[…]-3′; for MCP-1 were forward 5′-[…]-3′ and reverse 5′-[…]-3′; for TNF-α were forward 5′-[…]-3′ and reverse 5′-[…]-3′; for RPS29 were forward 5′-[…]-3′ and reverse 5′- […]-3′. The mRNA levels were quantified and normalized to the levels of the reference gene RPS29 using the 2^−ΔΔCt method and presented as relative expression compared to the values for untreated cells.

[2] = cyclic voltammetry, electrooxidation potential; format: physicochemical; details: vs. Ag/Ag+; acetonitrile, glassy carbon electrode
Description: Cyclic voltammetry experiments were carried out using a PARSTAT 2273 electrochemical system. A stationary glassy carbon disk electrode (d = 0.8 mm) served as the working electrode, while the counter electrode was a Pt wire. The oxidation potentials were measured relative to an Ag/Ag^+ reference electrode. Acetonitrile was dried over P2O5 and distilled; the distillate was stored over CaH2 and redistilled immediately prior to use. Recrystallized tetrabutylammonium tetrafluoroborate (TBATFB) was used as a supporting electrolyte at 0.1 M concentration.

[3] = test system: FFA3/GPR41 mRNA; assay: FFA3/GPR41 gene expression in LPS-stimulated THP-1 macrophages (qRT-PCR); format: cell-based, human; details: compound 50 µM; 4 h LPS 1 µg/mL; p < 0.05
Description: as §1, §2

[4] = target: T1, FFA3/GPR41 (Homo sapiens, UniProt O14843); assay: forskolin-stimulated cAMP accumulation assay, Flp-In-293 cells stably expressing FFA3/GPR41; format: cell-based; details: for Emax: Flp-In-293, read-out: FFA3/GPR41 Emax, maximal inhibition of forskolin-stimulated cAMP (converted)
T1 construct: host or cells: Flp-In-293
T1 sequence (O14843 1-346): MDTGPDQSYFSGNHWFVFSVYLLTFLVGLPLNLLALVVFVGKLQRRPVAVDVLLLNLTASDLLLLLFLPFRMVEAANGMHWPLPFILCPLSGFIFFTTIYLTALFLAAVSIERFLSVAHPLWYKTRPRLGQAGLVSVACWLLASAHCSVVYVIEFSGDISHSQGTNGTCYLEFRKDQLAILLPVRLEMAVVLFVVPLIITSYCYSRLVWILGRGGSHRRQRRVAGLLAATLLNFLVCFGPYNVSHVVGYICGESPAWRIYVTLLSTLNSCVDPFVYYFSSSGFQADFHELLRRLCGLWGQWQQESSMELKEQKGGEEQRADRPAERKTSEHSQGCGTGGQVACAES
Description: (§3) All of our synthesized compounds were evaluated in forskolin-stimulated cAMP accumulation assay using Flp-In-293 cells stably expressing human FFA2/GPR43, FFA3/GPR41 or HCA2/GPR109A receptors (Table 1, Table 2 and Table 3; Figure 2).
(§4) Flp-In-293 cells (Invitrogen) were used for the generation of stable FFA3/GPR41 and FFA2/GRP43 cell lines using Flp-In System (Invitrogen). Flp-In-293 cells were cultured in Dulbecco’s modified Eagle medium (DMEM) supplemented with 10% fetal bovine serum (FBS), penicillin (100 U/mL), streptomycin (100 µg/mL), and zeocin (100 µg/mL). The cells were co-transfected with pOG44 (Invitrogen) and pcDNA5/FRT-FFA3 or pcDNA5/FRT-FFA2 using TurboFect (Thermo Fisher Scientific), and stable cell lines were generated according to the manufacturer’s protocol (Invitrogen). After transfection, the cells were cultured under selection pressure due to the presence of hygromycin B (100 µg/mL) in DMEM supplemented with 10% FBS, penicillin, and streptomycin.
(§5) For cAMP assay, the cells were distributed into a 384-well white microplate at a density of 12,000 cells per well and stimulated with the indicated compounds in the presence of 3 μM forskolin for 30 min. […] The cells and the compounds were diluted in 1X phosphate-buffered saline (PBS) supplemented with 0.5 mM of 3-isobutyl-1-methylxanthine. The intracellular cAMP levels were measured using a Lance cAMP kit according to the manufacturer’s instructions. The plates were read on a PerkinElmer Victor 3V multilabel plate reader. The cAMP was quantitated in each sample by comparison to a calibration curve of known cAMP quantities provided in the kit.

[5] = test system: TNF-α mRNA; assay: LPS-induced TNF-α gene expression in THP-1 macrophages (qRT-PCR); format: cell-based, human; details: compound 50 µg/mL; 4 h LPS; LPS-treated cells = 100%
Description: as §1, §2

[6] = target: T2, FFA2/GPR43 (Homo sapiens, UniProt O15552); assay: forskolin-stimulated cAMP accumulation assay, Flp-In-293 cells stably expressing FFA2/GPR43; format: cell-based; details: cAMP assay
T2 construct: host or cells: Flp-In-293
T2 sequence (O15552 1-330): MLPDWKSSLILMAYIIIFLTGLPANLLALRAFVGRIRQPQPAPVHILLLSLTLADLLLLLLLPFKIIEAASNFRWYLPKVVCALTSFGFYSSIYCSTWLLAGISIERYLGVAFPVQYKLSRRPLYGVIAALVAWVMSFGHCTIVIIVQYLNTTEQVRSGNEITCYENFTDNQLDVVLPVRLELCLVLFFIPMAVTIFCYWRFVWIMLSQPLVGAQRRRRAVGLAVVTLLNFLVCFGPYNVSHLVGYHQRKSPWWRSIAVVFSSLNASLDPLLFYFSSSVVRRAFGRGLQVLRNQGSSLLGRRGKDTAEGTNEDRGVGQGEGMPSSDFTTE
Description: as §3, §4, §5

[7] = test system: IL-6 mRNA; assay: LPS-induced IL-6 gene expression in THP-1 macrophages (qRT-PCR); format: cell-based, human; details: compound 50 µg/mL; 4 h LPS; LPS-treated cells = 100%
Description: as §1, §2

[8] = parameters: method as in PMID 32141297; details: calculated with ChemDraw Professional Version 16; cited from earlier work
[9] = inhibition of forskolin-stimulated cAMP, absence of propionate, mean ± SD, read-out: FFA3/GPR41 EC50
[10] = presence of 5 µM propionate, read-out: FFA3/GPR41 EC50 in the presence of propionate

SMILES | decrease in MCP-1 mRNA [1] [%] | El.ox. pot. (first, lower potential) [2] [V] | El.ox. pot. (second, higher potential) [2] [V] | LPS-stimulated FFA3/GPR41 mRNA level [3] | Emax ([4]; mean ± SD) [%] | EC50 [4, 9] [nM] | EC50 [4, 10] [nM] | decrease in TNF-α mRNA [5] [%] | activity towards FFA2/GPR43 (in words) [6] | decrease in IL-6 mRNA [7] [%] | logP [8]
CC1=C(C(=O)Nc2ccccc2C)C(c2cccs2)C2=C(CCCC2=O)N1 (stereo not drawn) [1-1] | 53 ± 5 | 1.19 | 1.64 | significantly increased | 96 | 1790 ± 300 | 640 ± 200 | 59 ± 10 | lacked activity | 67 ± 1 | 2.65
CC1=C(C(=O)Nc2ccccc2C)C(c2ccco2)C2=C(CCCC2=O)N1 (stereo not drawn) [1-2] | 67 ± 10 | 1.19 | 1.99 | significantly increased | 93 | 610 ± 90 | 580 ± 30 | 64 ± 13 | – | 74 ± 1 | 2.18
CC1=C(C(=O)Nc2cc(Cl)ccc2Cl)C(c2ccco2)C2=C(CCCC2=O)N1 (stereo not drawn) [1-3] | – | – | – | – | 99 | 320 ± 50 | 100 ± 20 | – | – | – | 2.90
CC1=C(C(=O)Nc2ccc(Cl)cc2Cl)C(c2ccco2)C2=C(CCCC2=O)N1 (stereo not drawn) [1-4, N-(2,4-Dichlorophenyl)-4-(furan-2-yl)-2-methyl-5-oxo-1,4,5,6,7,8-hexahydroquinoline-3-carboxamide] | 37 ± 6 | 1.24 | 1.67 | – | 86 | 230 ± 70 | 81 ± 40 | 50 ± 2 | – | 64 ± 5 | –
